Measurements from patent publication US7560470B2, “Heterocyclyl-3-sulfonylindazoles as 5-hydroxytryptamine-6 ligands” (Wyeth, priority 2003, dated 2009).

What was measured:
[1] = target: T1, human cloned 5-HT6 receptors (Homo sapiens, UniProt P50406); assay: 5-HT6 binding affinity, [3H]-LSD displacement on membranes of Hela cells expressing human cloned 5-HT6 receptors; settings: [3H]-LSD 3.0 nM, Hela cell membranes, 120 min at room temperature; read-out: 5-HT6 Binding Ki
T1 construct: expressed in transfected cells; host or cells: HeLa cells (membrane preparation)
Method: The affinity of test compounds for the serotonin 5-HT6 receptor is evaluated in the following manner. Cultured Hela cells expressing human cloned 5-HT6 receptors are harvested and centrifuged at low speed (1,000×g) for 10.0 min to remove the culture media. The harvested cells are suspended in half volume of fresh physiological phosphate buffered saline solution and recentrifuged at the same speed. This operation is repeated. The collected cells are then homogenized in ten volumes of 50 mM Tris.HCl (pH 7.4) and 0.5 mM EDTA. The homogenate is centrifuged at 40,000×g for 30.0 min and the precipitate is collected. The obtained pellet is resuspended in 10 volumes of Tris.HCl buffer and recentrifuged at the same speed. The final pellet is suspended in a small volume of Tris.HCl buffer and the tissue protein content is determined in aliquots of 10-25 μl volumes. Bovine Serum Albumin is used as the standard in the protein determination according to the method described in Lowry et al., J. Biol. Chem., 193:265 (1951). The volume of the suspended cell membranes is adjusted to give a tissue protein concentration of 1.0 mg/ml of suspension. The prepared membrane suspension (10 times concentrated) is aliquoted in 1.0 ml volumes and stored at −70° C. until used in subsequent binding experiments.
Binding experiments are performed in a 96 well microtiter plate format, in a total volume of 200 μl. […] The test compounds are added in 20.0 μl volume.
The reaction is allowed to proceed in the dark for 120 min at room temperature, at which time, the bound ligand-receptor complex is filtered off on a 96 well unifilter with a Packard Filtermate® 196 Harvester. The bound complex caught on the filter disk is allowed to air dry and the radioactivity is measured in a Packard TopCount® equipped with six photomultiplier detectors, after the addition of 40.0 μl Microscint®−20 scintillant to each shallow well. The unifilter plate is heat-sealed and counted in a PackardTopCount® with a tritium efficiency of 31.0%.
Binding in the presence of varying concentrations of test compound is expressed as a percentage of specific binding in the absence of test compound. The results are plotted as log % bound versus log concentration of test compound. Nonlinear regression analysis of data points with a computer assisted program Prisms® yields both the IC50 and the Ki values of test compounds with 95% confidence limits.
The amount of displacement by the test compound is given in percent (%) inhibition and is derived from the following equation:
[formula] where B0 is the amount of CPM bound in the presence of the testing agent. NSB represents the CPM bound in the presence of a saturating concentration of a displacer and TB represents the total amount of CPM bound at zero (0) concentration of test compound.
Alternatively, a linear regression line of data points is plotted, from which the IC50 value is determined and the Ki value is determined based upon the following equation: Ki=IC50/(1+L/KD) where L is the concentration of the radioactive ligand used and KD is the dissociation constant of the ligand for the receptor, both expressed in nM.

T1 sequence (P50406 whole entry): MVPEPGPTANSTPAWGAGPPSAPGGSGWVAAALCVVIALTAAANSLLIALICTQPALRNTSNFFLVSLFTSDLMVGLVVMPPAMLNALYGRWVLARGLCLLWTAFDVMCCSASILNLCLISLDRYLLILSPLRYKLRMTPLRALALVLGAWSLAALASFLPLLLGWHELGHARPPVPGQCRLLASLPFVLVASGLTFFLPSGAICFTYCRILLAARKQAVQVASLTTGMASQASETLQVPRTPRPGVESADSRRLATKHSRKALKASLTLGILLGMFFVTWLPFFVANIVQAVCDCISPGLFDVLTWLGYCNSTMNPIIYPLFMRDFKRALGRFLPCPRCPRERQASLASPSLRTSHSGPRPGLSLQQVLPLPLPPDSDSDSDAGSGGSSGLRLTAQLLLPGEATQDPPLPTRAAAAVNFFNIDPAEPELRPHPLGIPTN

Ki [1]: 0.02 µM
melting point: 132 to 135 °C
Structure (SMILES): COc1cccc(-n2nc(S(=O)(=O)c3ccccc3)c3cc(N4CCNCC4)ccc32)c1 [Example 36]
